According to patent publication US20220257595A1, “MACITENTAN FOR USE IN TREATING PORTOPULMONARY HYPERTENSION” (ACTELION PHARMACEUTICALS LTD, priority 2019, published 2022):
Entries after “also recorded” stand apart in the source; their conditions may differ.

Assays:
Format in all cases: in vivo, human
[1] = PORTICO PK substudy: steady-state plasma macitentan and ACT-132577
Protocol: It was planned to enroll at least 20 patients who were on steady-state treatment with macitentan (i.e., at least 4 weeks) into the PK substudy. The substudy was conducted in consenting patients from all centers across all regions who agreed to participate. The substudy consisted of the following periods:
PK assessments period: PK assessments were to be performed after OL study treatment had been taken for at least 4 weeks. The substudy comprised two visits (Day 1: Enrollment and Day 2: Conclusion). See, FIG. 2. Subject eligibility was first checked on Day 1 of the PK substudy prior to the start of assessments.
PK substudy: On Day 1 of the PK substudy, the study treatment was required to be taken directly after the pre-dose blood sample. On Day 2 of the PK substudy, study treatment was required to be taken after the collection of the last PK blood sample (24 hours post Day 1 dose).
F3. Pharmacokinetic Endpoints for Macitentan and its Active Metabolite ACT-132577 • The area under the plasma concentration-time curve during one dosing interval (AUCt). • Maximum plasma concentration (Cmax) during a dosing interval. • The time to reach maximum plasma concentration (tmax) during a dosing interval.
(i) Timing for sampling: For the PK assessment, blood samples were drawn at the following time points: • PK substudy Day 1: Immediately before study treatment administration in the morning (pre-dose) and 1 h, 3 h, 5 h, 6 h, 7 h, 8 h, 9 h, 10 h, 12 h, and 14 h post-dose. • PK substudy Day 2: 24 h post-dose.
(iii) Bioanalysis: A validated liquid chromatography coupled to mass spectrometry method was used for determining the concentrations of macitentan and its metabolite ACT-132577 in plasma. The limit of quantification (LOQ) for both analytes was 1 ng/mL.
The measured individual plasma concentrations of macitentan and its metabolite ACT-132577 were used to directly obtain Cmax and tmax. AUCT was calculated according to the linear trapezoidal rule using the measured concentration-time values above the LOQ during one dosing interval. The PK variables were calculated on the basis of the real (actual) blood sampling time points. For mean value calculations, all values below the LOQ (below the limit of quantification (BLQ) values) were set to zero if ≤50% of the values at a given time point were BLQ. If >50% of the values at a given time point were BLQ, no mean value was calculated. Mean concentration-time profiles were generated using these criteria. The individual and mean plasma concentration-time profiles were plotted on a linear scale. The derived PK variables for macitentan and ACT-132577 (AUCT, Cmax, tmax) are listed by patient. Plasma concentrations per time point were summarized using arithmetic mean, minimum, median, maximum, standard deviation (SD), standard error (SE), and two-sided 95% confidence interval of the mean. […] (*For tmax the geometric mean and its 95% confidence interval were not calculated).

patients with PoPH [2] = experiment: Post-hoc: liver transplant perioperative risk classification (mPAP categories); details: for LT perioperative risk classification: Week 12 High risk (mPAP => 45 mm Hg): 10 mg, N = 43
Protocol: Post-Hoc, Exploratory Criteria: • Proportion of patients with NT-proBNP decrease from above 300 ng/L to below this threshold • Odds ratio for improvement to a more favorable liver transplant perioperative risk category • Odds ratio for becoming eligible for the MELD exception • Odds ratio for improvement to a more favorable waitlist mortality risk category
Risk categories related to liver transplant (transplant perioperative risk classification, MELD exception eligibility and waitlist mortality risk) were analyzed descriptively by treatment group using shift tables from baseline to Week 12 with categories as defined in Example 1.
LT perioperative risk classification, MELD exception eligibility, and waitlist mortality analyses were performed after the database lock and SDTMs delivery for the Double-Blind period. Number (%) of patients in following categories were summarized and presented in shift tables. The estimated odds ratio for risk improvement and corresponding 95% confidence intervals were obtained from an exact logistic regression (macitentan vs placebo) with factors for treatment and risk category at baseline.
The presence of moderate to severe pulmonary hypertension in patients with liver disease increases the risk of graft dysfunction and cardiopulmonary-related mortality after orthotopic liver transplant. According to the International Liver Transplant Society (ILTS) Practice Guidelines, liver transplant is conditional to appropriate hemodynamics due to the risk of cardiopulmonary-related mortality after liver transplant: • mPAP ≥45 mmHg is an absolute contraindication to liver transplant (high risk) as it is associated with 100% cardiopulmonary mortality • mPAP ≥35 mmHg and <45 mmHg, with increased PVR is associated with increased mortality (intermediate risk) of about 50%
mPAP <35 mmHg is associated with a low risk for liver transplant • LT perioperative risk classification

patients with PoPH [3] = experiment: Post-hoc: change in mPAP / PVR by baseline mPAP / PVR category; details: for PVR Change from baseline to Week 12, Median / PVR Week 12, Median / PVR Change from baseline to Week 12, Mean / PVR Week 12, Mean / mPAP Week 12, Median / mPAP Week 12, Mean / mPAP Change from baseline to Week 12, Median / mPAP Change from baseline to Week 12, Mean: 10 mg, Full Analysis Set
Description: This example provides post hoc analyses of the study performed in Example 1. These analyses include: • To assess the effect of macitentan on mean pulmonary arterial pressure (mPAP) related to pre-treatment mPAP. • To assess the effect of macitentan on pulmonary vascular resistance (PVR) related to pre-treatment PVR.
The following exploratory endpoints were defined for the post hoc analyses: • mPAP change related to pre-treatment mPAP. • PVR change related to pre-treatment PVR
All analyses were performed on the full analysis set (FAS, as per randomization, N=85) and no data imputation was performed.
Risk categories are noted in Table 38. To analyze change in mPAP relative to baseline mPAP, the same mPAP categories were used as for transplant perioperative risk classification (Table 38). For the analysis of change in PVR relative to baseline PVR, waitlist mortality risk PVR categories were used (Table 38).

[4] = PVR at baseline <= 450 dyn · sec/cm^5, n 12
[5] = PVR at baseline > 450 dyn · sec/cm^5, n 27
[6] = mPAP at baseline < 35 mmHg, n 2

Structure (SMILES): CCCNS(=O)(=O)Nc1ncnc(OCCOc2ncc(Br)cn2)c1-c1ccc(Br)cc1 [macitentan, N-[5-(4-Bromophenyl)-6-[2-[(5-bromo-2-pyrimidinyl)oxy]ethoxy]-4-pyrimidinyl]-N′-propylsulfamide]
- Plasma exposure in PoPH patients compared with other forms of PAH / other macitentan studies [1]: consistent between PoPH patients and patients with other forms of PAH; also recorded: comparable between patients with PoPH and other forms of PAH; also recorded: consistent with those in other macitentan studies
- Trough plasma concentration, mean±SD ([1]; OL macitentan 10 mg o.d. at least 4 weeks, PoPH patients, n=8): 213.1 ± 86.4 ng/mL
- Cmax ([1]; human, plasma, oral, macitentan 10 mg o.d., PoPH patients, PKS 10 patients, read-out: Cmax, geometric mean (95% confidence interval)): 369 ng/mL
- Tmax ([1]; human, plasma, oral, macitentan 10 mg o.d., PoPH patients, PKS 10 patients, read-out: tmax, median (range)): 6.5 h
- AUC(0-t) ([1]; human, plasma, oral, one dosing interval, macitentan 10 mg o.d., PoPH patients, read-out: AUCT, geometric mean (95% confidence interval)): 6660 ng·h/mL
- LT perioperative risk classification: Week 12 High risk (mPAP => 45 mm Hg) (patients with PoPH [2]; Baseline Intermediate risk (n = 16)): 0 n (%)
- LT perioperative risk classification: Week 12 High risk (mPAP => 45 mm Hg) (patients with PoPH [2]; Baseline Low risk (n = 2)): 0 n (%)
- Odds to change to a more favorable LT perioperative risk category, macitentan vs placebo (patients with PoPH [2]; Week 12, exact logistic regression): 3.73 times
- Patients improving to a more favorable LT perioperative risk category (patients with PoPH [2]; after 12 weeks, FAS no imputation, 18 patients): 41.9%
- LT perioperative risk: Between-treatment odds ratio for improvement, OR (patients with PoPH [2]; macitentan vs placebo, exact logistic regression, 95% CI 1.175, 13.401, p-value 0.0224): 3.732
- Macitentan-treated patients with a decrease in PVR at Week 12 compared to baseline (patients with PoPH [3]; FAS no imputation, 41 patients): 95.3%
- Macitentan-treated patients with a decrease in mPAP at Week 12 compared to baseline (patients with PoPH [3]; FAS no imputation, thirty-eight patients): 88.3%
- PVR Change from baseline to Week 12, Median (patients with PoPH [3]; [4]): −120.0 dyn · sec/cm^5
- PVR Week 12, Median (patients with PoPH [3]; [4]): 248.7 dyn · sec/cm^5
- PVR Change from baseline to Week 12, Mean (patients with PoPH [3]; PVR at baseline <= 450 dyn · sec/cm^5, n 12, SD 71.23): −116.4 dyn · sec/cm^5
- PVR Week 12, Mean (patients with PoPH [3]; PVR at baseline <= 450 dyn · sec/cm^5, n 12, SD 86.64): 264.6 dyn · sec/cm^5
- PVR Change from baseline to Week 12, Median (patients with PoPH [3]; [5]): −244.9 dyn · sec/cm^5
- PVR Week 12, Median (patients with PoPH [3]; [5]): 382.5 dyn · sec/cm^5
- PVR Change from baseline to Week 12, Mean (patients with PoPH [3]; PVR at baseline > 450 dyn · sec/cm^5, n 27, SD 125.48): −249.4 dyn · sec/cm^5
- PVR Week 12, Mean (patients with PoPH [3]; PVR at baseline > 450 dyn · sec/cm^5, n 27, SD 130.62): 400.7 dyn · sec/cm^5
- Mean (SD) decrease in mPAP at Week 12 (patients with PoPH [3]; and <45 mmHg): 5.2 (4.22) mmHg
- Mean (SD) decrease in PVR at Week 12 (patients with PoPH [3]; baseline PVR <450 dyn·s/cm^5): 116.4 (71.23) dyn·s/cm^5
- Mean (SD) decrease in PVR at Week 12 (patients with PoPH [3]; baseline PVR >450 dyn·s/cm^5): 249.4 (125.48) dyn·s/cm^5
- Mean (SD) decrease in mPAP at Week 12 (patients with PoPH [3]; baseline mPAP <35 mmHg): 2.0 (5.66) mmHg
- Mean (SD) decrease in mPAP at Week 12 (patients with PoPH [3]; baseline mPAP ≥45 mmHg): 7.8 (5.27) mmHg
- mPAP Week 12, Median (patients with PoPH [3]; mPAP at baseline 35 to < 45 mmHg, n 13): 36.0 mmHg
- mPAP Week 12, Mean (patients with PoPH [3]; mPAP at baseline 35 to < 45 mmHg, n 13, SD 3.84): 35.4 mmHg
- mPAP Change from baseline to Week 12, Median (patients with PoPH [3]; [6]): −2.0 mmHg
- mPAP Week 12, Median (patients with PoPH [3]; [6]): 29.0 mmHg
- mPAP Change from baseline to Week 12, Mean (patients with PoPH [3]; mPAP at baseline < 35 mmHg, n 2, SD 5.66): −2.0 mmHg
- mPAP Week 12, Mean (patients with PoPH [3]; mPAP at baseline < 35 mmHg, n 2, SD 8.49): 29.0 mmHg
- mPAP Week 12, Median (patients with PoPH [3]; mPAP at baseline >= 45 mmHg, n 24): 43.0 mmHg
- mPAP Week 12, Mean (patients with PoPH [3]; mPAP at baseline >= 45 mmHg, n 24, SD 7.04): 44.0 mmHg
- mPAP Change from baseline to Week 12, Median (patients with PoPH [3]; mPAP at baseline ≥ 35 to < 45 mmHg, n 13): −5.0 mmHg
- mPAP Change from baseline to Week 12, Mean (patients with PoPH [3]; mPAP at baseline ≥ 35 to < 45 mmHg, n 13, SD 4.22): −5.2 mmHg
- mPAP Change from baseline to Week 12, Median (patients with PoPH [3]; mPAP at baseline ≥ 45 mmHg, n 24): −7.5 mmHg
- mPAP Change from baseline to Week 12, Mean (patients with PoPH [3]; mPAP at baseline ≥ 45 mmHg, n 24, SD 5.27): −7.8 mmHg
